# Patent US20080276327A1, “Methods and Compositions Related to Delivery of Chemical Compounds to Invertebrate Embryos” (UNIVERSITY OF UTAH RESEARCH FOUNDATION, priority 2004, published 2008)
# Tested on: Drosophila embryos
# Test: DMSO dose-response, development and hatching of Drosophila embryos
# Format: in vivo
# Method: Initial studies examined the toxicity of DMSO in Drosophila embryos.
# First it was shown that DMSO was not deleterious to normal embryonic development.
# Broad dilution series were made of DMSO in PBS. Approximately 50 eggs were placed in each well of a 96 well plate containing these solutions. They were placed at 18° C. or at 25° C. and hatched offspring were counted at the end of embryonic development (36 hours at 18° and 24 hours at 25°). […] 100% of eggs produced normal larvae at concentrations as high as 5% in PBS, pH 7.2. At 7.5% DMSO the percentage declined dramatically to approximately 50% and by 10% DMSO, the percentage hatching was only ˜10%.
smiles,measurement,setting,value
C[S+](C)[O-] [DMSO],percentage hatching,7.5% DMSO in PBS,Approximately 50%
same,percentage hatching,10% DMSO in PBS,~10%
same,eggs that produced normal larvae,"DMSO as high as 5% in PBS, pH 7.2",100%
same,embryos in which normal development occurs,concentrations of DMSO as high as 5%,100%
same,concentrations of DMSO at which embryonic development proceeds normally to eclosion,dose-response curves,≤ 5 % v/v
same,percentages surviving at 25° compared with 18°,solutions above 5% DMSO,always less than those kept at 18°
